Results on 39 compounds are retold here after PubChem BioAssay AID858 (Vanderbilt High Throughput Screening Facility, 2007).

Usually EC50 stands for the concentration at which the effect is half-maximal.

The structures appear in SMILES notation. Active and inactive are the calls of the source.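 How the source made its calls: active means at least two of three replicate dose series yielding a converging curve fit, whether well or thinly supported; inactive means the rest.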

D(1A) dopamine receptor (Homo sapiens), sequence (P21728 whole entry, looked up): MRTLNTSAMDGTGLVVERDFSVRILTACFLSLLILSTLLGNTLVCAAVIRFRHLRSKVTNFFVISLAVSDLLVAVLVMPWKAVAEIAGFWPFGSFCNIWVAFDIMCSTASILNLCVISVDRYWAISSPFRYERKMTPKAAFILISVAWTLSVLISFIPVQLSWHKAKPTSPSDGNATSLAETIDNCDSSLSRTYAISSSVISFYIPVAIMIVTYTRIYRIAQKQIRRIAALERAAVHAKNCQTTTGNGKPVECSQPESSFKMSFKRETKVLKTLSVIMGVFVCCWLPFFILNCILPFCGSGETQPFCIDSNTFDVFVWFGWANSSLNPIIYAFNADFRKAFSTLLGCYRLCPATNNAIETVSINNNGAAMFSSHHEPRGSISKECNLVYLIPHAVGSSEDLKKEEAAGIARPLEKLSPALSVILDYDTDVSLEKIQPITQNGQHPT

The test concerns the target D(1A) dopamine receptor (Homo sapiens) (UniProt P21728). In words: concentration-dependent D1 reporter signal change – cell-based, CRE-luciferase, HEK293, dopamine EC30, D1 allosteric modulator project, dose response (AID 858).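 Further: HEK 293 cells bearing human D1 receptor stimulated by dopamine at its EC30; luciferase light from a cAMP response element reporter gene.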
Take `O=C(CSc1nc2ccccc2s1)NC(=O)NCc1ccco1`: the outcome was inactive.

With `CCCCSc1nc2c(c(=O)n1CC)SC(C)C2` (centres undefined), the outcome was inactive.

Consider `CCn1c2ccccc2c2nnc(SCCCn3c(=O)[nH]c4ccccc43)nc21`, for which the result was inactive.

Turning to `NC(=O)COc1ccc(NC(=O)OCc2ccccc2)cc1`, the outcome was inactive.

With `COc1ccc(-c2noc(CCC(N)=O)n2)cc1OC`, the outcome was inactive.

On to `COc1ccc(-n2nc3ccccc3n2)cc1`, for which the result was inactive.

On to `O=C(CCc1ccc(CCC(=O)c2cccs2)s1)c1cccs1`, for which the outcome was inactive.

For the compound `Cc1cc(O)c(C=Nc2cccc(Cl)c2)c(=O)o1`, the outcome was inactive.

Consider `CC1(C)Cc2c(C#N)c(NC3CCCCC3)nc(-c3ccco3)c2CO1`, for which the EC50 was 2600 nM.

With `Cc1cc(C)nc(SCC(=O)Nc2ncc3c(n2)CC(C)(C)CC3=O)n1`, the result was inactive.

Consider `CCCCCn1c(N)c(C#N)c2nc3ccccc3nc21`, for which the outcome was inactive.

Take `COc1ccc(CCN(C)C(=O)C2CCCN(Cc3ccc(OC)c(OC)c3)C2)cc1OC` (centres undefined): the outcome was inactive.

With `Cc1ccccc1NC(=O)c1nc[nH]c1C(=O)NCc1ccccc1`, the outcome was inactive.

On to `CCOc1ccccc1C1CC(c2ccccc2)Nc2nc(N)nn21` (centres undefined), for which the result was inactive.

Take `CC(=O)Nc1nc2n(n1)C(c1ccccc1)C=C(c1ccccc1)N2` (centres undefined): the outcome was inactive.

Consider `COc1ccc(-c2cc(=O)oc3c(C)c(O)c(CN(C)C)cc23)cc1`, for which the outcome was inactive.

With `CCOC(=O)c1c(NC(=O)c2cccs2)sc(C)c1CC`, the outcome was inactive.

With `COc1ccc(OC)c(C2=NOC(C(=O)Nc3cccc(C(C)=O)c3)C2)c1` (centres undefined), the result was inactive.

Take `COc1ccc2nc(SCC(=O)N3CCCCCC3)c(C#N)cc2c1`: the outcome was inactive.

`Cc1ccc(-c2nc3ncccn3c2NC(=O)C2CC2)cc1`: the outcome was inactive.

With `CCOC(=O)c1c(C2CC2)csc1NC(C)=O`, the result was inactive.

For `CCCCNC(=O)c1ccc2nc(-c3ccco3)c(-c3ccco3)nc2c1`, the outcome was inactive.

Take `c1ccc(-c2nc3nonc3nc2-c2ccccc2)cc1`: the outcome was inactive.

As to `CC1(C)CC(=O)C2=C(C1)OC(N)=C(C#N)C2c1cccc(OC(=O)c2ccco2)c1` (centres undefined), the outcome was inactive.

Consider `COCCNC(=O)c1c(NC(=O)c2ccco2)n(Cc2ccccc2)c2nc3ccccc3nc12`, for which the outcome was inactive.

On to `COC(=O)c1cc(NC(=O)CSc2nc(C)cc(=O)[nH]2)cc(C(=O)OC)c1`, for which the result was inactive.

`c1ccc(C2=Nn3c(nnc3-c3ccncc3)SC2)cc1`: the result was inactive.

`Cc1noc(C)c1CSc1ncnc2ccccc12`: the outcome was inactive.

Turning to `c1ccc(-c2nc3ccccc3c3nncn23)cc1`, the result was inactive.

As for `N#Cc1c2c(nc(N)c1-c1ccccc1)CCCCC2`, the result was inactive.

Regarding `Cc1cc(NS(=O)(=O)c2ccc(NC(=O)COc3ccccc3C(C)C)cc2)no1`, the result was inactive.

For `Cc1ccc(-c2cc(-c3ccc(C)o3)nc(N)c2C#N)cc1`, the outcome was inactive.

As for `COc1ccccc1-c1nnc2n1N=C(C(C)(C)C)CS2`, the outcome was inactive.

On to `CCc1nn(CCCC(=O)N2CCc3ccccc3C2)c(=O)c2cc3occc3n12`, for which the result was inactive.

Turning to `Cc1cc(C)n2c3c(c(C#N)c2n1)CCCC3`, the outcome was inactive.

For the compound `CCOC(=O)C(O)(CCC(O)(C(=O)OCC)C(=O)OCC)C(=O)OCC`, the result was inactive.

In the case of `O=S(=O)(c1ccccc1)c1nc(-c2ccco2)oc1N1CCCCCC1`, the outcome was inactive.

As to `C=CCn1c2ccccc2c2nnc(SCC(=O)NC(C(=O)OC)C(C)C)nc21` (centres undefined), the outcome was inactive.

Consider `O=c1c2cc(Cl)ccc2[nH]c(=S)n1Cc1ccco1`, for which the outcome was inactive.
